Measured values as given in patent US20030175735A1, “Recombinant adenylcyclase and use thereof for screening molecules with proteolytic activity” (priority 2000, published 2003).

Tests used:
[1] = target: wild-type HIV protease (Human immunodeficiency virus type 1 group M subtype B, UniProt P04585); assay type: cell-based
Protocol: (§1) The bacteria are cultured in Luria-Bertani (LB) liquid or agar (15 g/l agar) medium. Their ability to ferment sugars is tested on McConkey agar medium containing 1% of maltose (Miller, 1972, Experiments in Molecular Genetics, Cold Spring Harbor Lab. Press, Cold Spring Harbor, N.Y.). The antibiotics are used at the following concentrations: ampicillin: 100 μg/ml and kanamycin: 50 μg/ml. The protease inhibitors, indinavir (Crixivan, Merck) and saquinavir (Invirase, Roche) are dissolved, respectively, in ethanol and in water (final concentration 20 mM) and then diluted in the culture media at the concentrations indicated.
In order to test this system, a recombinant protein according to the invention, ACp5, into which is inserted, between amino acids 224 and 225 of the adenyl cyclase, the p5 cleavage site of the HIV protease, was generated. The plasmid expressing this protein (pKACp5, example 2) was cotransformed into an E. coli cya strain, with a compatible plasmid carrying or not carrying the wild-type HIV protease (pUCVIH or pUC19).

[2] = test system: HIV protease mutant V2; assay type: cell-based
Protocol: as §1
The DNA encoding the modified proteases was cloned into the vector of pUC19 (example 2) and the plasmids obtained were cotransformed with pKACp5 into the DHT1 strain. The phenotype of the transformed bacteria is observed on McConkey maltose medium containing or not containing protease inhibitors.

[3] = test system: wild-type HIV protease; assay type: cell-based; conditions: for phenotype in the presence of inhibitor: Cya− in the absence of inhibitor
Protocol: as §1
A chimeric protein (ACPr) was therefore constructed (example 2), into which is inserted, between amino acids 224 and 225 of the adenyl cyclase, the HIV protease (99 residues) and its two cleavage sequences p5 and p6 (each one 8 amino acids) .

[4] = test system: HIV protease mutant B3; test: system in cis: phenotype of DHT1 with pKACB3; assay type: cell-based
Protocol: as §1
(§2) For this study, the B1, B3, V1 and V2 proteases are inserted between amino acids 224 and 225 of the adenyl cyclase and the chimeric proteins obtained are expressed in the DHT1 strain (plasmids pKACB1, pKACB3, pKACV1 and pKACV2).

[5] = test system: HIV protease mutant V2; test: system in cis: phenotype of DHT1 with pKACV2; assay type: cell-based
Protocol: as §1, §2

[6] = test system: HIV protease mutant B1; conditions: modified protease B1
Description: (§3) The mutations are described relative to the amino acid sequence (1-99) of the reference virus protease (V: Val; I: Ile; M: Met; T: Thr; L: Leu and P: Pro). The level of resistance of the mutants corresponds to the relative increase (compared to the wild-type protease) in the concentration of inhibitors required to inhibit 50% of the viral replication.

[7] = test system: HIV protease mutant B3; conditions: modified protease B3 (M46I, V77I, V82T)
Description: as §3

[8] = test system: HIV protease mutant V1; conditions: modified protease V1 (L63P)
Description: as §3

[9] = test system: HIV protease mutant V2; conditions: modified protease V2 (L10I, L63P, L90M)
Description: as §3

| Structure (SMILES) | concentration needed for the bacteria to become Cya+ [1] [µM] | concentration needed for the bacteria to become Cya+ [2] [µM] | concentration up to which the bacteria have a Cya− phenotype [3] [µM] | phenotype on medium containing 100 μM indinavir ([3]; pKACPr, system in cis) | phenotype in the presence of inhibitor ([3]; pKACPr, system in cis) | concentration up to which the bacteria have a Cya− phenotype [4] [µM] | phenotype on medium containing 100 μM indinavir [5] | Resistance to inhibitor: relative increase (compared to the wild-type protease) in the concentration required to inhibit 50% of the viral replication [6] [X] | Resistance to inhibitor: relative increase (compared to the wild-type protease) in the concentration required to inhibit 50% of the viral replication [7] [X] | Resistance to inhibitor: relative increase (compared to the wild-type protease) in the concentration required to inhibit 50% of the viral replication [8] [X] | Resistance to inhibitor: relative increase (compared to the wild-type protease) in the concentration required to inhibit 50% of the viral replication [9] [X] | phenotype on medium containing 20 μM of saquinavir ([3]; pKACPr, system in cis) | phenotype at 10 μM ([3]; pKACPr, system in cis, 10 μM saquinavir) | phenotype at 10 μM ([4]; 10 μM saquinavir) | phenotype on medium containing 20 μM of saquinavir [5] |
| --- | --- | --- | --- | --- | --- | --- | --- | --- | --- | --- | --- | --- | --- | --- | --- |
| CC(C)(C)NC(=O)[C@@H]1CN(Cc2cccnc2)CCN1C[C@@H](O)C[C@@H](Cc1ccccc1)C(=O)N[C@H]1c2ccccc2C[C@H]1O [indinavir] | 50 | 50 | 50 | red colonies | Cya^+ | 100 | Cya^− | 1 | 13 | 1 | 4 |  |  |  |  |
| CC(C)(C)NC(=O)[C@@H]1C[C@@H]2CCCC[C@@H]2CN1C[C@@H](O)[C@H](Cc1ccccc1)NC(=O)[C@H](CC(N)=O)NC(=O)c1ccc2ccccc2n1 [saquinavir] | 10 | 20 |  |  | Cya^+ |  |  | 1 | 3 | 1 | 53 | red colonies | red | Cya^− | Cya^− |
